# Literature values in patent publication US20240207217A1, “IMPROVED TREATMENT METHODS FOR CABAZITAXEL” (ORBICULAR PHARMACEUTICAL TECHNOLOGIES PRIVATE LIMITED, priority 2020, published 2024).
# Entries after “also recorded” stand apart in the source; their conditions may differ.
# Legend:
# [1] = test system: complement; settings: enzyme-linked immunosorbent assays
# [2] = clinical trials in patients with cancer
# [3] = IV administration; high clearance and small Vd
Compound,Solubility in water,Half-life (t ½) [3],Complement activation in vitro (in words) [1],Incidence of infusion-site adverse events (ISAEs) [2]
CO[C@H]1C(=O)[C@]2(C)[C@@H](OC)C[C@H]3OC[C@@]3(OC(C)=O)[C@H]2[C@H](OC(=O)c2ccccc2)[C@]2(O)C[C@H](OC(=O)[C@H](O)[C@@H](NC(=O)OC(C)(C)C)c3ccccc3)C(C)=C1C2(C)C [cabazitaxel],poorly soluble,,,
Poly-oxyethylene-sorbitan monooleate [polysorbate 80],,,cause complement activation; also recorded: could activate the complement system,
sulfobutyl-ether-beta-cyclodextrin [SBCD],,quite short,,

# Now from value to compound, other results behind:
Solubility in water,Half-life (t ½) [3],Compound,Complement activation in vitro (in words) [1],Incidence of infusion-site adverse events (ISAEs) [2]
poorly soluble,,CC(=O)O[C@@]12CO[C@@H]1C[C@H](O)[C@@]1(C)C(=O)[C@H](O)C3=C(C)[C@@H](OC(=O)[C@H](O)[C@@H](NC(=O)OC(C)(C)C)c4ccccc4)C[C@@](O)([C@@H](OC(=O)c4ccccc4)[C@H]21)C3(C)C [docetaxel],cause complement activation,3-4%
poorly soluble,,CC(=O)O[C@H]1C(=O)[C@@]2(C)[C@H]([C@H](OC(=O)c3ccccc3)[C@]3(O)C[C@H](OC(=O)[C@H](O)[C@@H](NC(=O)c4ccccc4)c4ccccc4)C(C)=C1C3(C)C)[C@]1(OC(C)=O)CO[C@@H]1C[C@@H]2O [paclitaxel],,
